Measurements: US20240226160A9, “ACTIVITY-INDUCIBLE FUSION PROTEINS HAVING A HEAT SHOCK PROTEIN 90 BINDING DOMAIN” (Seattle Children's Hospital d/b/a Seattle Children's …, priority 2021, published 2024)
Changes are numbered by the printed parent chain.

Experiments:
[1] = test system: huCD19CAR-EBD(4OHT); test: Anti-CD3zeta western blot with band quantification; format: cell-based; conditions: 500 nM, 24 hr incubation, vs 0 nM
Experimental: FIG. 26. Anti-zeta Western Blot evaluating huCD19CAR-EBD(4OHT) with differing Glycine linkers in 0 nM and 500 nM of 4OHT OR (Z)-endoxifen. Protein processing and expression of huCD19CAR-EBD with different linkers between the CAR and the EBD was evaluated using an anti-CD3zeta western blot analysis. Whole cell lysates were made for the huCD19CAR-EBD(4OHT) T cell lines with either a 1Glycline, 2Glycine or 3Glycine linker between the CAR and EBD domains in 0 nM and 500 nM 4OHT/(Z)-endoxifen drug conditions following a 24 hr incubation. Whole cell lysates were also made for the Mock T cell line and the CAR alone T cell line under the same conditions. The western blot was imaged and analyzed on the LiCOR Odyssey. Additionally, protein band quantification was performed using the LiCOR Odyssey. CAR zeta chain expression is observed for all CAR-1/2/3Glylinker-EBD lines in both the no drug and maximum drug conditions.

[2] = target: T1, B7H3 EBD(CMP8) CAR (Homo sapiens, UniProt P03372, G521R/L384M/M421G); test: Jurkat iSynPro eGFP:ffluc reporter assay (GFP by flow cytometry); format: cell-based
T1 construct: expressed in transfected cells; host or cells: clonal Jurkat iSynPro eGFP:ffluc reporter cell line (transduced)
T1 sequence (P03372 282-595 L384M/M421G/G521R): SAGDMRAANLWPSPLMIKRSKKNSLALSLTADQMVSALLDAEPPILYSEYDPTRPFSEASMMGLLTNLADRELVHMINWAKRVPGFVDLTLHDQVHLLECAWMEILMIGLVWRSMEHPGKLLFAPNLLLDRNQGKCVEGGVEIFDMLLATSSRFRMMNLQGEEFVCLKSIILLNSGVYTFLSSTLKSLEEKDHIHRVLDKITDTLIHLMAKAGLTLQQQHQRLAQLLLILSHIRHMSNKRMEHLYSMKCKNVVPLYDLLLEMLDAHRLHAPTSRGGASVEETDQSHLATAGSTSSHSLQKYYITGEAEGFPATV
Experimental: FIG. 11. Design of B7H3 CAR EBD mutant study. […] Jurkat iSynPro lines included cJ10792: Jurkat iSynPro-GFP:ffluc; cJ13093: Jurkat iSynPro-GFP:ffluc+B7H3 CAR; cJ13094: Jurkat iSynPro-GFP:ffluc+B7H3 CAR EBD (4-OHT); and cJ13095: Jurkat iSynPro-GFP:ffluc+B7H3 CAR EBD (CMP8) with a K562 parental target. 4-OHT and CMP8 concentrations of 0 nM, 500 nM and 1000 nM were tested for each cell line.
FIG. 16. Design of activation curve study. The objective of the study was to examine activation curves of CAR EBD Jurkat iSynPro lines in an increasing presence of 4-OHT, (Z)-endoxifen, or CMP8.
FIG. 9 (top) depicts a schematic of Jurkat iSynPro eGFP:ffluc reporter cells. Jurkat iSynPro eGFP:ffluc reporter cells feature a Jurkat cell line lentivirally transduced to stably express a inducible synthetic promoter (iSynPro WO2018213332A1) regulating the expression of an enhanced green fluorescent protein (eGFP) fused to bioluminescent reporter firefly luciferase (ffluc). This line was then clonally selected by limiting dilution. […]
Jurkat iSynPro eGFP:ffluc assays are also depicted in FIG. 9 (bottom). […] At the 24 hr timepoint, cells were collected and evaluated by flow cytometry. Cells were initially stained for CD33 to gate out target cell lines before they were evaluated for GFP expression by positivity and/or mean fluorescence intensity (MFI). […]

[3] = target: T2, B7H3CAR-3Gly-EBD variants (Homo sapiens, UniProt P03372, G521R/L384M/M421G); conditions: B7H3CAR-3Gly-EBD(CMP8) vs K562+mCherry, drug added at 24 hrs
T2 sequence (P03372 282-595 L384M/M421G/G521R): T1 sequence (P03372 282-595 L384M/M421G/G521R)
Experimental: (31A) Incucyte Cytotoxicity Assay: B7H3CAR-3Gly-EBD variants. CD4 and CD8 T cells (mixed at a 1:1 ratio) expressing a either B7H3CAR-3Gly-EBD(4OHT), B7H3CAR-3Gly-EBD(CMP8), or B7H3CAR-3Gly-EBD(ES8) were either preincubated for 24 hrs with 500 nM inducer drug or not preincubated. These T cells were subsequently plated with CAR-target expressing tumor lines (K562, and/or Be2) constitutively expressing mCherry (for detection and quantification). […] Plates were placed inside of an Incucyte and imaged every 3-4 hours for several days. mCherry signal was then quantified and plotted as a function of time. […]
(32A-32C) CD4 and CD8 T cells (mixed at a 1:1 ratio) expressing either B7H3CAR-3Gly-EBD(4OHT), B7H3CAR-3Gly-EBD(CMP8), or B7H3CAR-3Gly-EBD(ES8) (were either preincubated for 24 hrs with 500 nM inducer drug or not preincubated (B7H3CAR-3Gly-EBD(4OHT) received 500 nM 4OHT, B7H3CAR-3Gly-EBD(CMP8) received 500 nM CMP8, B7H3CAR-3Gly-EBD(ES8) received 500 nM ES8). These T cells were subsequently plated with CAR-target expressing tumor lines (K562, and/or Be2) constitutively expressing mCherry (for detection and quantification). Tumors were plated at 10,000 per well, and co-culture was performed at a 4:1 ratio (T cell:tumor cell) with or without the appropriate drug at 500 nM. […]

[4] = target: T3, B7H3CAR-3Gly-EBD(4OHT) (Homo sapiens, UniProt P03372, G400V/L544A/M543A); test: Chromium release assay, specific cell lysis; format: cell-based
T3 construct: expressed in transfected cells; T cells by b52 and b55
T3 sequence (P03372 282-595 G400V/M543A/L544A): T1 sequence (P03372 282-595 L384M/M421G/G521R) with M103L, G119V, G140M, R240G, M262A, L263A
Experimental: FIG. 18. […] Specific cell lysis was evaluated using a chromium release assay. […] Following the 4 hr incubation the Perkin Elmer TopCount was used to quantify the amount of Cr51 released into each well as tumor lysis occurred.

[5] = target: T3, B7H3CAR-3Gly-EBD(4OHT); test: Meso Scale Diagnostic cytokine release assay; format: cell-based; conditions: 24 hr drug culture 0-500 nM, 24 hr co-incubation with tumor lines
Experimental: FIGS. 19A, 19B. […] (20A and 20B) Cytokine release was evaluated using a Meso Scale Diagnostic assay. […] Following the 24 hr incubation the supernatant from each co-incubation was collected and run on the MESO QuickPlex SQ 120 instrument to ascertain the amount of cytokine released.

[6] = target: T4, EBD(ES8) (Homo sapiens, UniProt P03372, E353A); test: CD107a activation assay (flow cytometry MFI); format: cell-based; conditions: for CD107a response of EBD(ES8) to drug: 24 hr preconditioning, 4 hours co-culture
T4 sequence (P03372 282-595 E353A): T1 sequence (P03372 282-595 L384M/M421G/G521R) with E72A, M103L, G140M, R240G
Experimental: FIGS. 28A, 28B. (28A) CD107a activation assay: huCD19CAR-EBD(4OHT) linker variants vs K562+CD19t. […] To achieve this, T cells (including mock and constitutively active CAR controls) were preconditioned with target drug concentration(s) for 24 hrs, then exposed to a tumor line expressing their target antigen (CD19 or B7H3). After 4 hours of co-culture with target tumors at various drug concentrations, the T cells were assessed for a) activation and degranulation by staining for CD107a and b) cell surface CAR-EBD by staining for human scFv (which works for both B7H3CAR and huCD19CAR), then running on flow cytometry. MFI (median fluorescence intensity) was determined for each stain on each sample under each condition and plotted on a log scale of drug concentration. EC10 and EC90 (effective concentration 10% and 90%) were calculated in Graphpad Prism for CD107a expression and function as estimates for the drug concentration required for each construct to turn “on” or “off”. Positive and negative controls for each CAR are presented in the bar graph. […] EBD(4OHT) responds to 4-OHT and (Z)-endoxifen, but not to CMP8 or ES8. The responsiveness of degranulation to target antigen in the presence of inducer molecule is largely similar between the Gly linker variants. EBD(4OHT) is very sensitive to its intended inducer molecules, beginning to activate (EC10) at single nanomolar concentrations and becoming fully activated (EC90) at double digit nanomolar concentrations. […] Both EBD(CMP8) and EBD(ES8) respond to 4OHT.

CC/C(=C(\c1ccc(O)cc1)c1ccc(OCCN(C)C)cc1)c1ccccc1 [4-OHT, 4-hydroxytamoxifen]
increase in CAR-EBD protein expression (zeta chain band quantification) [1]: ~3 fold

CC/C(=C(\c1ccc(O)cc1)c1ccc(OCCNC)cc1)c1ccccc1 [(Z)-endoxifen]
increase in CAR-EBD protein expression (zeta chain band quantification) [1]: ~3 fold

O=C1CCC2(Cc3ccc(Cl)cc3)Cc3cc(O)ccc3C2=C1c1ccc(OCCN2CCCCC2)cc1 (centres unmarked) [CMP8]
induction of expression at lowest drug level ([2]; 0.49 nM of drug): still observed
response of EBD(CMP8) mutant (GFP induction) ([2]; K562 target, 24 hr): response
change in tumor growth kinetics once activated [3]: immediate
specific lysis ([4]; 500 nM): 0%
regulation of CAR activity (specific cell lysis) ([4]; 24 hr drug culture 0-500 nM, 4 hr co-incubation with Cr-51 tumor line): is not regulated by
regulation of CAR activity (cytokine release) [5]: is not regulated by
CD107a response of EBD(ES8) to drug [6]: does not respond to

C[C@]12CC[C@@H]3c4ccc(/C=C/C(=O)O)cc4CC[C@H]3[C@@H]1CC[C@@H]2O [ES8]
CD107a response of EBD(ES8) to drug [6]: very sensitive to induction
maximum magnitude of induction ([6]; CD107a): less than its induction with 4OHT
